Reference: patent US20240217981A1, “CRYSTALLINE COMPOUND OF MUSCARINIC ACETYLCHOLINE M1 RECEPTOR ANTAGONISTS” (Pipeline Therapeutics, Inc., priority 2021, published 2024)
Values after ≈ are worked out from the molar mass of the structure shown. Where two headings read alike, the source gives them in different places.

What was measured:
[1] = Physicochemical stability evaluation; details: for Form change: XRPD
Method: In these experiments, about 10 mg of Freebase Type A was stored at 25° C./60% RH, 40° C./75% RH for one week and 60° C./sealed for 24 hrs. After storage, the solids were tested by XRPD and HPLC.

[2] = biological target: T1, human M4 receptor (Homo sapiens, UniProt P08173); test: In vitro functional assay of muscarinic acetylcholine receptor activity (aequorin calcium flux, reversal of acetylcholine EC50 response); assay type: cell-based
T1 sequence (P08173 1-479): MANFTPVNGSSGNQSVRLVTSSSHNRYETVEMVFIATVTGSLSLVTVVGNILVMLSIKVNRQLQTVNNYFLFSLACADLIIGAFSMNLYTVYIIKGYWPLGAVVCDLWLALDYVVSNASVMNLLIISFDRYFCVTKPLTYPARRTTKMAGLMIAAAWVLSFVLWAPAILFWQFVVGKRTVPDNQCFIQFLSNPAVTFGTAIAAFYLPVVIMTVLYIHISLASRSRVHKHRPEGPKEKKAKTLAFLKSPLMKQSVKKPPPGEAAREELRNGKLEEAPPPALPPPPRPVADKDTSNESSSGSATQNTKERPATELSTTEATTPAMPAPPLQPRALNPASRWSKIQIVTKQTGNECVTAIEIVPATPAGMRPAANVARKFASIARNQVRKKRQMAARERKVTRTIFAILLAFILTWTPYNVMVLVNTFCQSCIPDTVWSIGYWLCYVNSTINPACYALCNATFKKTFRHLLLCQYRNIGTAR
Method: (§1) Primary compound plates were prepared in 100% DMSO in opaque 96-well plates (VWR) and serially diluted in half log increments. Secondary compound plates were prepared at 3× concentration in assay buffer. The compound (6-(3-(4,4-difluoro-4-(2-methoxypyridin-4-yl)butanoyl)-3,8-diazabicyclo[3.2.1]octan-8-yl)nicotinonitrile) was added to white, clear bottom tissue culture treated 96-well plates (Fisher Scientific). Coelenterazine-loaded cells were then added at 5×10^5 cells/well.
(§2) The compound and cells were incubated at room temperature for 30 min in the dark. Acetylcholine at the EC50 concentration was added and calcium flux measured using a FlexStation 3 (Molecular Devices). Sigmoidal dose-response curves were generated by measuring […] over 40 sec and calculating the area under the curve. Dose response curves and IC50 values were generated using Prism (GraphPad). The compound was tested at a final concentration range of […] in 0.10% DMSO.
(§3) CHO-K1 cells stably expressing human M2, M3 and M4 receptors, respectively, with aequorin (Perkin Elmer) were used to assess a test compound's ability to dose-dependently reverse the EC50 acetylcholine response. The IC50 of the compound was calculated from the dose response curve.

[3] = biological target: T2, human M2 receptor (Homo sapiens, UniProt P08172); test: as above; assay type: cell-based; details: CHO-K1 cells expressing human M2 receptor with aequorin; acetylcholine at EC50
T2 sequence (P08172 1-466): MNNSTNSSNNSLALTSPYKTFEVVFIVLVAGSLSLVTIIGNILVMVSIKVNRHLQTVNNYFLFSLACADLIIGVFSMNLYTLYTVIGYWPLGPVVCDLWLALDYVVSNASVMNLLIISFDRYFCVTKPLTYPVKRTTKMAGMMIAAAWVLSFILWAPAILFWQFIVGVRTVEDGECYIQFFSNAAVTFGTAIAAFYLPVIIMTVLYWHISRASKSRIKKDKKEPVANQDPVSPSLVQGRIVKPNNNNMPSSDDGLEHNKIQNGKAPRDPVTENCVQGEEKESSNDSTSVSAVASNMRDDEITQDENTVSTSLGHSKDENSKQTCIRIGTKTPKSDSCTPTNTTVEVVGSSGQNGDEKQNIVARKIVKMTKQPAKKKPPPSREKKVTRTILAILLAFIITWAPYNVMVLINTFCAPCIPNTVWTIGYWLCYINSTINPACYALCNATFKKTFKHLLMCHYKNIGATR
Method: as §1, §2, §3

[4] = biological target: human M3 receptor (Homo sapiens, UniProt P20309); test: as above; assay type: cell-based
Method: as §1, §2, §3

[5] = Hygroscopicity evaluation by DVS test; assay type: physicochemical
Method: Hygroscopicity of Freebase Type A was evaluated by DVS test. […] For the minus weight change observed in the desorption curve, it might be related to sample loss or instrument fluctuation.

[6] = Kinetic solubility evaluation; assay type: physicochemical; details: for solubility / solubility at 1 h / solubility at 4 h / solubility at 24 h: thermodynamic from solid; for FC (Form change): residual solid by XRPD; for solubility at 1 h / solubility at 4 h / solubility at 24 h: read-out: S (Solubility of freebase)
Method: In these experiments, about 20 mg of Freebase Type A was suspended in 4 mL of FaSSIF, FeSSIF, SGF and H2O, respectively. After rolling at 37° C. for 1 hr, 4 hrs and 24 hrs, the suspension was centrifuged and filtered through a 0.45 μm PTFE membrane. The residual solids were tested by XRPD and the supernatant was tested by HPLC and pH meter. Detailed procedure can be found in Table 15.

[7] = biological target: T3, human M1 receptor (Homo sapiens, UniProt P11229); test: In vitro functional assay of muscarinic acetylcholine receptor activity (aequorin calcium flux, reversal of acetylcholine EC50 response); assay type: cell-based
T3 sequence (P11229 1-460): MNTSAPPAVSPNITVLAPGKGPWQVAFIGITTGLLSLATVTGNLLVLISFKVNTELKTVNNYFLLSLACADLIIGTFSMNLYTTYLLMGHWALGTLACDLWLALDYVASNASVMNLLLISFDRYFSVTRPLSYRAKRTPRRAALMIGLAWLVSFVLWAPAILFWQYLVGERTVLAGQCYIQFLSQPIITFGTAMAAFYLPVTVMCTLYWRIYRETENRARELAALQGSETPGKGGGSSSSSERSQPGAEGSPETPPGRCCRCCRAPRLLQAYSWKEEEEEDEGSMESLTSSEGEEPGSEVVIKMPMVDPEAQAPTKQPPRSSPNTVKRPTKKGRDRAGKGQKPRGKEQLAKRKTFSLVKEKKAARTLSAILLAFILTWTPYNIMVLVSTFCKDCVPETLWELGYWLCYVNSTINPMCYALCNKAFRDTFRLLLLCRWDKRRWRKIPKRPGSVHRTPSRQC
Method: CHO-K1 cells stably expressing human M1 receptor with aequorin (Perkin Elmer) were grown in F12 media (Gibco) containing 10% FBS (ATCC), 0.4 mg/mL geneticin (Sigma-Aldrich) and 0.25 mg/mL Zeocin (Invitrogen). Cells were grown as per the manufacturer's protocol. For compound testing, cells were grown to confluency and detached gently with Accutase (Sigma-Aldrich) followed by centrifugation for 5 min at 150×g. Cells were then re-suspended in assay buffer (i.e. DMEM/F-12 HEPES without phenol red (Invitrogen) with 0.1% BSA (Sigma-Aldrich)) at a density of 5×10^6 cells/ml. Under sterile conditions, 5 μM coelenterazine (Invitrogen) was added to the cells, mixed, then incubated at room temperature protected from light, with gentle agitation, for 4 h.
Primary compound plates were prepared in 100% DMSO in opaque 96-well plates (VWR) and serially diluted in half log increments. Secondary compound plates were prepared at 3× concentration in assay buffer. […]
The compound and cells were incubated at room temperature for 30 min in the dark. Acetylcholine at the EC50 concentration was added and calcium flux measured using a FlexStation 3 (Molecular Devices). Sigmoidal dose-response curves were generated by measuring […] over 40 sec and calculating the area under the curve. […]

[8] = 25° C./60% RH, 40° C./75% RH for one week and 60° C./sealed for 24 hrs

Chain of human M3 receptor (P20309 whole entry): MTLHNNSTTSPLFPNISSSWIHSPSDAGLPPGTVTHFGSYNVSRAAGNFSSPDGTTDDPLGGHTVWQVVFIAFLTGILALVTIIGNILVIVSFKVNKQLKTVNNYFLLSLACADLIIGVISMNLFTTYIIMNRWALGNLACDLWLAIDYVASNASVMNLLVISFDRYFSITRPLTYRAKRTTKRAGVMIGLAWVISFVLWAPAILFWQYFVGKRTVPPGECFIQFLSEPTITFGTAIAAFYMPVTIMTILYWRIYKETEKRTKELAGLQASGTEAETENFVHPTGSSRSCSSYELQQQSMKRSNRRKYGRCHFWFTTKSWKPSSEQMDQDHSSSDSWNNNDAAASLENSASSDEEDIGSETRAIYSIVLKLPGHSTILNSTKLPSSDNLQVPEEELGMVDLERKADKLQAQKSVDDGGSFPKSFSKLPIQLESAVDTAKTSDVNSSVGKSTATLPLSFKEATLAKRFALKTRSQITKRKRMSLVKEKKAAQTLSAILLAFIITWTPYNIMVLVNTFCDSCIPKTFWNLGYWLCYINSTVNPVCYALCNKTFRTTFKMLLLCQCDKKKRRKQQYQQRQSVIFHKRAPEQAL

For `COc1cc(C(F)(F)CCC(=O)N2CC3CCC(C2)N3c2ccc(C#N)cn2)ccn1` [Compound, 6-(3-(4,4-difluoro-4-(2-methoxypyridin-4-yl)butanoyl)-3,8-diazabicyclo[3.2.1]octan-8-yl)nicotinonitrile], the “HPLC purity Of initial” value ([1]; 25° C./60% RH, 1 w) was 100.00%, the “HPLC purity after storage” value ([1]; 25° C./60% RH, 1 w) was 100.00 area % and the “form change after storage (XRPD)” value [1, 8] was “no form change was observed”. The “purity decrease after storage (HPLC)” value [1, 8] was “no purity decrease was detected”, the “HPLC purity Of initial” value ([1]; 40° C./75% RH, 1 w) was 100.00% and the “HPLC purity after storage” value ([1]; 40° C./75% RH, 1 w) was 100.00 area %. For the same molecule, the “HPLC purity Of initial” value ([1]; 60° C./sealed, 24 hrs) was 100.00%, the “HPLC purity after storage” value ([1]; 60° C./sealed, 24 hrs) was 100.00 area % and the Form change ([1]; 25° C./60% RH, 1 w) was “No”. For the same molecule, the Form change ([1]; 40° C./75% RH, 1 w) was “No”, the Form change ([1]; 60° C./sealed, 24 hrs) was “No” and the IC50 [2] was 100 to 1000 nM. It also gave an IC50 [3] of 1000 to 10000 nM, an IC50 [4] of 100 to 1000 nM and a water uptake ([5]; 80% RH/25° C., sorption cycle from 0% RH to 95% RH) of 0.01%. For the same molecule, the hygroscopicity ([5]; DVS test) was “non-hygroscopic”, the “form change after the DVS test” value ([5]; XRPD) was “no form change was observed” and the “solubility rank order of media, from high to low” value ([6]; FaSSIF, FeSSIF, SGF and H2O, 37° C.) was “SGF>FeSSIF>FaSSIF>H2O”. The “form change after rolling in tested media” value ([6]; XRPD, tested media, 1, 4, and 24 hrs) was “no form change was observed”, the solubility ([6]; pH 1.77, simulated gastric fluid, SGF, 37° C., over 1 hr, 4 hrs and 24 hrs, read-out: solubility in SGF) was no more than 150 µg/mL and the solubility ([6]; pH 6.95, water, H2O, 37° C., read-out: solubility in H2O) was 20 µg/mL (≈ 46.8 µM). The “FC (Form change)” value ([6]; FaSSIF, 37° C., 1 hr) was “No”, the “FC (Form change)” value ([6]; FaSSIF, 37° C., 4 hrs) was “No” and the “FC (Form change)” value ([6]; FaSSIF, 37° C., 24 hrs) was “No”. For the same molecule, the “FC (Form change)” value ([6]; FeSSIF, 37° C., 1 hr) was “No”, the “FC (Form change)” value ([6]; FeSSIF, 37° C., 4 hrs) was “No” and the “FC (Form change)” value ([6]; FeSSIF, 37° C., 24 hrs) was “No”. For the same molecule, the “FC (Form change)” value ([6]; H2O, 37° C., 1 hr) was “No”, the “FC (Form change)” value ([6]; H2O, 37° C., 4 hrs) was “No” and the “FC (Form change)” value ([6]; H2O, 37° C., 24 hrs) was “No”. For the same molecule, the “FC (Form change)” value ([6]; SGF, 37° C., 1 hr) was “No”, the “FC (Form change)” value ([6]; SGF, 37° C., 4 hrs) was “No” and the “FC (Form change)” value ([6]; SGF, 37° C., 24 hrs) was “No”. It also gave a solubility at 1 h ([6]; simulated gastric fluid, SGF (pH 1.77), 37° C., 1 hr) of 140 µg/mL (≈ 328 µM), a solubility at 4 h ([6]; simulated gastric fluid, SGF (pH 1.77), 37° C., 4 hrs) of 150 µg/mL (≈ 351 µM) and a solubility at 24 h ([6]; simulated gastric fluid, SGF (pH 1.77), 37° C., 24 hrs) of 140 µg/mL (≈ 328 µM). The solubility at 1 h ([6]; FaSSIF (pH 6.47), 37° C., 1 hr) was 30 µg/mL (≈ 70.2 µM), the solubility at 4 h ([6]; FaSSIF (pH 6.47), 37° C., 4 hrs) was 30 µg/mL (≈ 70.2 µM) and the solubility at 24 h ([6]; FaSSIF (pH 6.47), 37° C., 24 hrs) was 30 µg/mL (≈ 70.2 µM). For the same molecule, the solubility at 1 h ([6]; FeSSIF (pH 4.99), 37° C., 1 hr) was 60 µg/mL (≈ 140 µM), the solubility at 4 h ([6]; FeSSIF (pH 4.99), 37° C., 4 hrs) was 60 µg/mL (≈ 140 µM) and the solubility at 24 h ([6]; FeSSIF (pH 4.99), 37° C., 24 hrs) was 60 µg/mL (≈ 140 µM). It also gave a solubility at 1 h ([6]; water, H2O (pH 6.95), 37° C., 1 hr) of 20 µg/mL (≈ 46.8 µM), a solubility at 4 h ([6]; water, H2O (pH 6.95), 37° C., 4 hrs) of 20 µg/mL (≈ 46.8 µM) and a solubility at 24 h ([6]; water, H2O (pH 6.95), 37° C., 24 hrs) of 20 µg/mL (≈ 46.8 µM). The IC50 [7] was less than 10 nM.
